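1) Cells in 96-well plates. 2) Compound, 48 h, 5 concentrations. 3) Linear interpolation between surrounding doses. 4) Unreached endpoint = highest concentration. GI50 is the concentration that inhibits growth by half.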 Calls of active or inactive are those of the source. Rule as the data show it: active = GI50 up to about 1.1 µM and inactive = higher.

Test systems include DLD-1; SNB-78; RXF 631; XF498; LXFL 529; KM-20L2; DMS-114; HOP-18; DMS-273.
Test in all cases: inhibition of tumour cell growth, NCI panel, 48 h

Take `C#CCNC(=O)NCCCCC(NC(C)=O)C(=O)NCc1ccccc1` (stereo unspecified): the GI50 with DLD-1 is > 100 µM (inactive); with SNB-78 it was > 100 µM (inactive); with RXF 631 it was > 100 µM (inactive); in the experiment on XF498 it was 0.101 µM (active); in the experiment with LXFL 529 it was > 100 µM (inactive); in the experiment on KM-20L2, > 100 µM (inactive). The GI50 with DMS-114 and with HOP-18 was > 100 µM (inactive) each time.
Take `CN1CCC(SC2Cc3cc(Cl)ccc3Sc3ccccc32)CC1` (stereo unspecified): the GI50 in the experiment with DLD-1 was 14 µM (inactive); in the experiment on RXF 631, 13.3 µM (inactive); in the experiment with XF498, 16 µM (inactive); with LXFL 529, 13.1 µM (inactive); with KM-20L2 it was 5.27 µM (inactive); with DMS-273, 12.5 µM (inactive). For the same compound, in the experiment with HOP-18, the GI50 is 13.5 µM (inactive).
Turning to `N#CCN1C(=O)c2cccc3cc([N+](=O)[O-])cc(c23)C1=O`, the GI50 with DLD-1 is 32 µM (inactive); in the experiment with SNB-78 it was 71.6 µM (inactive); with XF498, 25.8 µM (inactive); in the experiment on LXFL 529 it was 40.1 µM (inactive); with KM-20L2 it was 45.2 µM (inactive); with DMS-273 it was 30.7 µM (inactive). In addition, the figures for the GI50 with DMS-114 and in the experiment on HOP-18 were 38.7 µM (inactive) and > 100 µM (inactive), respectively.
Turning to `CC1OC(OP(=O)(OCc2ccccc2)OCc2ccccc2)C(OC(=O)c2ccccc2)C(OC(=O)c2ccccc2)C1I` (stereo unspecified), the GI50 was 50 µM (inactive) with DLD-1; > 100 µM (inactive) in the experiment with XF498; 41.8 µM (inactive) in the experiment with LXFL 529; 51.2 µM (inactive) in the experiment on KM-20L2; 53 µM (inactive) in the experiment on DMS-273.
With `CN(C)/C=N/c1nc2c(ncn2C2OC(CO)C(O)C2O)c(=O)[nH]1` (stereo unspecified), the GI50 in the experiment on DLD-1, with SNB-78, with RXF 631, in the experiment on XF498, with LXFL 529 and in the experiment with KM-20L2 was > 100 µM (inactive) throughout. Further, the GI50 with DMS-273, in the experiment on DMS-114 and in the experiment with HOP-18 was > 100 µM (inactive) throughout.
With `S=c1[nH]nc(Cc2ccccc2)c(=S)[nH]1`, the GI50 in the experiment with DLD-1 was 94.8 µM (inactive); with SNB-78, > 100 µM (inactive); in the experiment with RXF 631, > 100 µM (inactive); in the experiment with XF498, > 100 µM (inactive); with LXFL 529 it was > 100 µM (inactive); in the experiment with DMS-273, > 100 µM (inactive). Besides, the GI50 in the experiment with HOP-18 was 25.4 µM (inactive).
With `ClCCN(CC#CCCCC#CCN(CCCl)CCCl)CCCl`, the GI50 was 15.6 µM (inactive) in the experiment with DLD-1; 17.2 µM (inactive) in the experiment on SNB-78; 10.8 µM (inactive) in the experiment with RXF 631; 12.4 µM (inactive) in the experiment on LXFL 529; 13.8 µM (inactive) in the experiment with KM-20L2; 4 µM (inactive) with DMS-273. Also, the figures for the GI50 with DMS-114 and in the experiment with HOP-18 were 3.01 µM (inactive) and 17.8 µM (inactive), respectively.
As for `Cc1ccc(S(=O)(=O)NCCCN(CCCNS(=O)(=O)c2ccc(C)cc2)S(=O)(=O)c2ccc(C)cc2)cc1`, the GI50 with DLD-1, with SNB-78, in the experiment on LXFL 529, in the experiment with KM-20L2, with DMS-273 and with DMS-114 was > 100 µM (inactive) each time.
For the compound `O=C(/C=C/c1ccccc1F)c1ccc([N+](=O)[O-])cc1`, the GI50 with DLD-1 was 16.6 µM (inactive); with SNB-78, 37.2 µM (inactive); with XF498, 19.6 µM (inactive); with LXFL 529, 16.6 µM (inactive); in the experiment with KM-20L2 it was 30.8 µM (inactive); in the experiment with DMS-273, 36.3 µM (inactive). Further, the GI50 was 17.1 µM (inactive) in the experiment with DMS-114 and 57.5 µM (inactive) with HOP-18.
On to `Cc1nc(N)c(-c2ccccc2)s1`, for which the GI50 was > 82.6 µM (inactive) in the experiment with DLD-1; 68.4 µM (inactive) with SNB-78; > 100 µM (inactive) in the experiment on RXF 631; 34.6 µM (inactive) with XF498; > 100 µM (inactive) in the experiment with LXFL 529; > 70.8 µM (inactive) in the experiment on KM-20L2. Further, the GI50 is 39.9 µM (inactive) in the experiment with DMS-273, > 76 µM (inactive) with DMS-114 and > 100 µM (inactive) in the experiment with HOP-18.
`COc1ccc(S(=O)(=O)N[C@H](C(=O)O)c2ccccc2)cc1`: the GI50 with DLD-1, in the experiment with SNB-78, in the experiment with XF498, in the experiment with LXFL 529, with KM-20L2 and in the experiment on DMS-273 was > 100 µM (inactive) each time. Further, the GI50 in the experiment on DMS-114 and with HOP-18 was > 100 µM (inactive) throughout.
For `c1ccc2c(c1)SC(=C1Sc3ccccc3S1)S2`, the GI50 in the experiment on DLD-1, with SNB-78, in the experiment with RXF 631, in the experiment with XF498, in the experiment on LXFL 529 and in the experiment on KM-20L2 was > 100 µM (inactive) in each case. For the same compound, the GI50 in the experiment on DMS-273 is > 100 µM (inactive); in the experiment on DMS-114 it was 69.8 µM (inactive); in the experiment on HOP-18, > 100 µM (inactive).
In the case of `CCNCCCCNCCCCNCCCCNCCCCNCC`, the GI50 with DLD-1 is > 100 µM (inactive); in the experiment on SNB-78, > 100 µM (inactive); with XF498 it was > 32.8 µM (inactive); in the experiment on LXFL 529, > 94.8 µM (inactive); with KM-20L2, > 100 µM (inactive); in the experiment on DMS-273, > 49.7 µM (inactive). Also, the GI50 in the experiment on DMS-114 and in the experiment on HOP-18 was > 100 µM (inactive) throughout.
For `CCC/C(=N\NC(=S)N1CC2CCC(CC2)C1)c1ccccn1`, the GI50 was 0.0118 µM (active) with DLD-1; 0.344 µM (active) in the experiment on SNB-78; 0.00543 µM (active) in the experiment on XF498; 0.0113 µM (active) in the experiment on LXFL 529; 0.0145 µM (active) in the experiment on KM-20L2; 0.00839 µM (active) in the experiment with DMS-273. Moreover, the GI50 with HOP-18 was 0.149 µM (active).
For `N#CC1(Cc2ccc(N)cc2)c2ccccc2C=CN1C(=O)c1ccccc1` (stereo unspecified), the GI50 was 40 µM (inactive) in the experiment with DLD-1; 47.9 µM (inactive) in the experiment with SNB-78; 28.9 µM (inactive) with XF498; 35.8 µM (inactive) in the experiment on LXFL 529; 34.1 µM (inactive) in the experiment on KM-20L2; 47.1 µM (inactive) in the experiment on DMS-273. Moreover, the figures for the GI50 in the experiment on DMS-114 and with HOP-18 were 38.8 µM (inactive) and 25.2 µM (inactive), respectively.
With `Cc1cc(C)c(-c2noc(-c3ccc(Cl)cc3)c2C2=NCCN2)c(C)c1`, the GI50 with DLD-1 is 22.4 µM (inactive); in the experiment on SNB-78, 20.1 µM (inactive); in the experiment on RXF 631, 43.3 µM (inactive); in the experiment on XF498, 21.4 µM (inactive); in the experiment on LXFL 529 it was 19.9 µM (inactive); in the experiment with KM-20L2, 22.2 µM (inactive). Besides, the GI50 with HOP-18 was 1.17 µM (inactive).
As for `CCOC(=O)C(=O)Nc1ccc(C)cc1C`, the GI50 in the experiment with DLD-1, in the experiment on SNB-78, in the experiment on LXFL 529, with DMS-114 and with HOP-18 was > 100 µM (inactive) in each case.
As for `CC(C)(C)C1CCC(O)(c2ccccc2)CC1` (stereo unspecified), the GI50 is > 100 µM (inactive) in the experiment with DLD-1; > 100 µM (inactive) in the experiment on SNB-78; 1.97 µM (inactive) in the experiment on XF498; 78.2 µM (inactive) with LXFL 529; > 100 µM (inactive) in the experiment on KM-20L2; > 100 µM (inactive) with DMS-273. The GI50 was 45.6 µM (inactive) in the experiment on DMS-114 and > 100 µM (inactive) in the experiment with HOP-18.
As to `N#Cc1cc([N+](=O)[O-])ccc1NC(=O)C(=O)C(C(=O)c1ccc2ccccc2c1)C1OCc2ccccc21` (stereo unspecified), the GI50 with DLD-1 is 11.1 µM (inactive); in the experiment on SNB-78 it was 3.93 µM (inactive); with RXF 631 it was 11.3 µM (inactive); with LXFL 529, 4.41 µM (inactive); in the experiment with KM-20L2, 20.7 µM (inactive); with DMS-114 it was 8.07 µM (inactive).
`Cc1cc(C)nc(NS(=O)(=O)c2ccc(Nc3c4ccccc4nc4c(C(=O)N5CCN(CCO)CC5)ccc(Cl)c34)cc2)n1`: the GI50 in the experiment with SNB-78 is > 100 µM (inactive); in the experiment on RXF 631 it was 85.5 µM (inactive); with KM-20L2, 60.8 µM (inactive); in the experiment on DMS-273 it was > 100 µM (inactive); in the experiment on DMS-114, 72.3 µM (inactive).
Consider `CC(C)c1cc2c(O)c(c1)Cc1cc(C(C)C)cc(c1O)Cc1cc(C(C)C)cc(c1O)Cc1cc(C(C)C)cc(c1O)Cc1cc(C(C)C)cc(c1O)Cc1cc(C(C)C)cc(c1O)C2`, for which the GI50 in the experiment with DLD-1, in the experiment on SNB-78, in the experiment on XF498, with LXFL 529, in the experiment on KM-20L2 and in the experiment with DMS-273 was > 100 µM (inactive) in each case. In addition, the GI50 in the experiment on DMS-114 was > 100 µM (inactive).
For the compound `CCN(CC)CC(O)CNc1ccc(NCC(O)CCl)c2c1C(=O)c1ccccc1C2=O` (stereo unspecified), the GI50 was 8.83 µM (inactive) in the experiment with DLD-1; 6.7 µM (inactive) in the experiment with SNB-78; 13.4 µM (inactive) with XF498; 1.85 µM (inactive) in the experiment on LXFL 529; 4.68 µM (inactive) with KM-20L2; 3.33 µM (inactive) in the experiment with DMS-273. Further, the GI50 with HOP-18 is > 10 µM (inactive).
`C/C(=N\NS(=O)(=O)c1ccc(C)cc1)c1c(O)cc(C)oc1=O`: the GI50 in the experiment on DLD-1, in the experiment on SNB-78, in the experiment with LXFL 529, with KM-20L2 and with HOP-18 was > 100 µM (inactive) throughout.
As to `N=S(c1ccccc1)c1ccccc1[N+](=O)[O-]` (stereo unspecified), the GI50 was 18.6 µM (inactive) in the experiment on DLD-1; 36.1 µM (inactive) in the experiment on SNB-78; 3.16 µM (inactive) in the experiment with XF498; 16.6 µM (inactive) in the experiment on LXFL 529; 21 µM (inactive) in the experiment with KM-20L2; 18.4 µM (inactive) in the experiment on DMS-273. Besides, the GI50 with DMS-114 is 18.2 µM (inactive); with HOP-18, 32.6 µM (inactive).
Consider `O=C1C(=O)N(c2ccc(Cl)cc2)C(=O)C(=O)C1c1nc2ccccc2o1`, for which the GI50 in the experiment with DLD-1, with SNB-78, in the experiment on RXF 631, with XF498, with LXFL 529 and with KM-20L2 was > 100 µM (inactive) throughout. Further, the GI50 with DMS-273 and in the experiment on DMS-114 was > 100 µM (inactive) in each case.
